{
  "source": "the OligoGym collection",
  "note": "HELM strings list units from the 5' end as sugar, base in round brackets, then linkage (d deoxyribose, r ribose, m 2'-O-methyl, p phosphodiester). Strings are as the collection lists them, not checked against the first reports. ss, as = sense and antisense strand; also: test system not given here",
  "data": [
    {"details": "siRNA", "units": {"target mRNA knockdown": "%"}, "values": [
      {"substance": "RNA1{m(A)p.r(A)p.m(C)p.r(A)p.m(G)p.r(C)p.m(C)p.r(U)p.m(U)p.r(A)p.m(C)p.r(C)p.m(C)p.r(C)p.m(G)p.r(A)p.m(U)p.r(U)p.m(C)p.r(T)p.r(T)}|RNA2{r(G)p.m(A)p.m(A)p.r(U)p.r(C)p.r(G)p.r(G)p.r(G)p.r(G)p.r(U)p.m(A)p.m(A)p.r(G)p.r(G)p.r(C)p.r(U)p.r(G)p.r(U)p.r(U)p.r(T)p.r(T)}$$$RNA1{StrandType:ss}|RNA2{StrandType:as}$", "target mRNA knockdown": 32},
      {"substance": "RNA1{m(A)p.r(A)p.m(C)p.r(A)p.m(G)p.r(U)p.m(C)p.r(C)p.m(U)p.r(U)p.r(A)p.m(G)p.r(C)p.m(U)p.r(A)p.r(C)p.m(G)p.r(C)p.r(U)p.r(T)p.r(T)}|RNA2{r(A)p.r(G)p.r(C)p.r(G)p.r(U)p.r(A)p.r(G)p.r(C)p.r(U)p.r(A)p.r(A)p.r(G)p.r(G)p.r(A)p.r(C)p.r(U)p.r(G)p.r(U)p.r(U)p.r(T)p.r(T)}$$$RNA1{StrandType:ss}|RNA2{StrandType:as}$", "target mRNA knockdown": 35},
      {"substance": "RNA1{m(A)p.r(A)p.m(C)p.r(U)p.m(U)p.r(C)p.m(U)p.r(G)p.m(G)p.r(G)p.m(A)p.r(G)p.m(C)p.r(C)p.m(U)p.r(C)p.m(C)p.r(A)p.m(A)p.r(T)p.r(T)}|RNA2{r(U)p.r(U)p.r(G)p.r(G)p.m(A)p.r(G)p.r(G)p.r(C)p.r(U)p.r(C)p.r(C)p.r(C)p.m(A)p.r(G)p.m(A)p.m(A)p.r(G)p.r(U)p.r(U)p.r(T)p.r(T)}$$$RNA1{StrandType:ss}|RNA2{StrandType:as}$", "target mRNA knockdown": 42},
      {"substance": "RNA1{m(A)p.r(A)p.m(G)p.r(G)p.m(A)p.r(A)p.m(C)p.r(G)p.m(G)p.r(G)p.m(G)p.r(A)p.m(C)p.r(A)p.m(C)p.r(U)p.m(U)p.r(A)p.m(C)p.r(T)p.r(T)}|RNA2{r(G)p.r(U)p.r(A)p.r(A)p.r(G)p.r(U)p.r(G)p.r(U)p.r(C)p.r(C)p.r(C)p.r(C)p.r(G)p.r(U)p.r(U)p.r(C)p.r(C)p.r(U)p.r(U)p.r(T)p.r(T)}$$$RNA1{StrandType:ss}|RNA2{StrandType:as}$", "target mRNA knockdown": 12},
      {"substance": "RNA1{m(A)p.r(A)p.m(G)p.r(G)p.m(A)p.r(C)p.m(C)p.r(U)p.m(A)p.r(G)p.m(A)p.r(G)p.m(G)p.r(A)p.m(G)p.r(U)p.m(C)p.r(A)p.m(C)p.r(T)p.r(T)}|RNA2{m(G)p.r(U)p.m(G)p.r(A)p.r(C)p.r(U)p.r(C)p.r(C)p.r(U)p.r(C)p.r(U)p.r(A)p.m(G)p.m(G)p.r(U)p.r(C)p.r(C)p.r(U)p.r(U)p.r(T)p.r(T)}$$$RNA1{StrandType:ss}|RNA2{StrandType:as}$", "target mRNA knockdown": 36},
      {"substance": "RNA1{m(A)p.r(A)p.m(G)p.r(G)p.m(A)p.r(G)p.m(A)p.r(U)p.m(C)p.r(A)p.m(A)p.r(C)p.m(A)p.r(U)p.m(U)p.r(U)p.m(U)p.r(C)p.m(A)p.r(T)p.r(T)}|RNA2{m(U)p.r(G)p.m(A)p.r(A)p.m(A)p.r(A)p.m(U)p.r(G)p.m(U)p.r(U)p.m(G)p.r(A)p.m(U)p.r(C)p.m(U)p.r(C)p.m(C)p.r(U)p.m(U)p.r(T)p.r(T)}$$$RNA1{StrandType:ss}|RNA2{StrandType:as}$", "target mRNA knockdown": 75},
      {"substance": "RNA1{m(A)p.r(A)p.m(G)p.r(G)p.m(A)p.r(G)p.m(A)p.r(U)p.m(C)p.r(A)p.m(A)p.r(C)p.m(A)p.r(U)p.m(U)p.r(U)p.m(U)p.r(C)p.m(A)p.r(T)p.r(T)}|RNA2{r(U)p.m(G)p.r(A)p.m(A)p.r(A)p.m(A)p.r(U)p.m(G)p.r(U)p.m(U)p.r(G)p.m(A)p.r(U)p.m(C)p.r(U)p.m(C)p.r(C)p.m(U)p.r(U)p.r(T)p.r(T)}$$$RNA1{StrandType:ss}|RNA2{StrandType:as}$", "target mRNA knockdown": 65},
      {"substance": "RNA1{m(A)p.r(A)p.m(G)p.r(G)p.m(C)p.r(A)p.m(U)p.r(G)p.m(C)p.r(U)p.m(U)p.r(C)p.m(G)p.r(G)p.m(A)p.r(A)p.m(A)p.r(C)p.m(U)p.r(T)p.r(T)}|RNA2{r(A)p.m(G)p.r(U)p.r(U)p.r(U)p.r(C)p.r(C)p.r(G)p.r(A)p.r(A)p.m(G)p.r(C)p.r(A)p.r(U)p.m(G)p.r(C)p.r(C)p.r(U)p.r(U)p.r(T)p.r(T)}$$$RNA1{StrandType:ss}|RNA2{StrandType:as}$", "target mRNA knockdown": 60},
      {"substance": "RNA1{m(A)p.r(A)p.m(U)p.r(A)p.m(A)p.r(G)p.m(C)p.r(A)p.m(G)p.r(C)p.m(U)p.r(C)p.m(G)p.r(C)p.m(G)p.r(C)p.m(U)p.r(C)p.m(C)p.r(T)p.r(T)}|RNA2{r(G)p.r(G)p.m(A)p.r(G)p.r(C)p.r(G)p.r(C)p.r(G)p.m(A)p.r(G)p.r(C)p.r(U)p.r(G)p.r(C)p.r(U)p.r(U)p.m(A)p.r(U)p.r(U)p.r(T)p.r(T)}$$$RNA1{StrandType:ss}|RNA2{StrandType:as}$", "target mRNA knockdown": 32},
      {"substance": "RNA1{m(A)p.r(C)p.m(C)p.r(G)p.m(A)p.r(C)p.m(G)p.r(A)p.m(U)p.r(U)p.m(C)p.r(U)p.m(U)p.r(C)p.m(U)p.r(A)p.m(C)p.r(U)p.m(C)p.r(T)p.r(T)}|RNA2{r(G)p.r(A)p.r(G)p.r(U)p.r(A)p.r(G)p.r(A)p.r(A)p.r(G)p.r(A)p.r(A)p.r(U)p.r(C)p.r(G)p.r(U)p.r(C)p.r(G)p.r(G)p.r(U)p.r(T)p.r(T)}$$$RNA1{StrandType:ss}|RNA2{StrandType:as}$", "target mRNA knockdown": 42},
      {"substance": "RNA1{m(A)p.r(C)p.m(C)p.r(U)p.m(U)p.r(A)p.m(A)p.r(G)p.m(G)p.r(A)p.m(C)p.r(C)p.m(A)p.r(C)p.m(C)p.r(G)p.m(G)p.r(A)p.m(U)p.r(T)p.r(T)}|RNA2{r(A)p.r(U)p.r(C)p.m(C)p.r(G)p.r(G)p.r(U)p.r(G)p.r(G)p.r(U)p.r(C)p.r(C)p.m(U)p.r(U)p.m(A)p.r(A)p.m(G)p.r(G)p.m(U)p.r(T)p.r(T)}$$$RNA1{StrandType:ss}|RNA2{StrandType:as}$", "target mRNA knockdown": 52},
      {"substance": "RNA1{m(A)p.r(C)p.m(G)p.r(U)p.m(C)p.r(A)p.m(C)p.r(C)p.m(G)p.r(A)p.m(G)p.r(G)p.m(A)p.r(G)p.m(A)p.r(A)p.m(G)p.r(U)p.m(A)p.r(T)p.r(T)}|RNA2{r(U)p.r(A)p.r(C)p.r(U)p.r(U)p.r(C)p.r(U)p.r(C)p.r(C)p.r(U)p.r(C)p.m(G)p.m(G)p.r(U)p.r(G)p.r(A)p.r(C)p.m(G)p.r(U)p.r(T)p.r(T)}$$$RNA1{StrandType:ss}|RNA2{StrandType:as}$", "target mRNA knockdown": 31},
      {"substance": "RNA1{m(A)p.r(C)p.m(G)p.r(U)p.m(C)p.r(A)p.m(C)p.r(C)p.m(G)p.r(A)p.m(G)p.r(G)p.m(A)p.r(G)p.m(A)p.r(A)p.m(G)p.r(U)p.m(A)p.r(T)p.r(T)}|RNA2{r(U)p.r(A)p.r(C)p.r(U)p.r(U)p.r(C)p.r(U)p.r(C)p.r(C)p.r(U)p.r(C)p.r(G)p.r(G)p.r(U)p.r(G)p.r(A)p.r(C)p.r(G)p.r(U)p.r(T)p.r(T)}$$$RNA1{StrandType:ss}|RNA2{StrandType:as}$", "target mRNA knockdown": 36},
      {"substance": "RNA1{m(A)p.r(G)p.m(A)p.r(A)p.m(A)p.r(A)p.m(G)p.r(C)p.m(A)p.r(G)p.m(C)p.r(G)p.m(A)p.r(U)p.m(A)p.r(C)p.m(G)p.r(C)p.m(U)p.r(T)p.r(T)}|RNA2{r(A)p.r(G)p.r(C)p.r(G)p.r(U)p.r(A)p.r(U)p.r(C)p.r(G)p.r(C)p.r(U)p.r(G)p.r(C)p.r(U)p.r(U)p.r(U)p.r(U)p.r(C)p.r(U)p.r(T)p.r(T)}$$$RNA1{StrandType:ss}|RNA2{StrandType:as}$", "target mRNA knockdown": 34},
      {"substance": "RNA1{m(A)p.r(G)p.m(A)p.r(A)p.m(A)p.r(C)p.m(G)p.r(C)p.m(A)p.r(G)p.m(U)p.r(A)p.m(A)p.r(U)p.m(C)p.r(C)p.m(G)p.r(G)p.m(A)p.r(T)p.r(T)}|RNA2{r(U)p.r(C)p.r(C)p.m(G)p.m(G)p.r(A)p.r(U)p.r(U)p.r(A)p.r(C)p.r(U)p.m(G)p.r(C)p.m(G)p.r(U)p.r(U)p.r(U)p.r(C)p.r(U)p.r(T)p.r(T)}$$$RNA1{StrandType:ss}|RNA2{StrandType:as}$", "target mRNA knockdown": 36},
      {"substance": "RNA1{m(A)p.r(G)p.m(A)p.r(A)p.m(G)p.r(U)p.m(A)p.r(C)p.m(C)p.r(A)p.m(G)p.r(G)p.m(A)p.r(G)p.m(G)p.r(C)p.m(G)p.r(U)p.m(U)p.r(T)p.r(T)}|RNA2{r(A)p.r(A)p.r(C)p.r(G)p.r(C)p.r(C)p.r(U)p.r(C)p.r(C)p.r(U)p.r(G)p.r(G)p.r(U)p.r(A)p.r(C)p.r(U)p.r(U)p.r(C)p.r(U)p.r(T)p.r(T)}$$$RNA1{StrandType:ss}|RNA2{StrandType:as}$", "target mRNA knockdown": 24},
      {"substance": "RNA1{m(A)p.r(G)p.m(A)p.r(G)p.m(A)p.r(G)p.m(G)p.r(U)p.m(G)p.r(G)p.m(A)p.r(G)p.m(G)p.r(U)p.m(A)p.r(U)p.m(C)p.r(U)p.m(C)p.r(T)p.r(T)}|RNA2{r(G)p.r(A)p.r(G)p.r(A)p.r(U)p.r(A)p.r(C)p.r(C)p.r(U)p.r(C)p.r(C)p.m(A)p.r(C)p.r(C)p.r(U)p.m(C)p.r(U)p.m(C)p.r(U)p.r(T)p.r(T)}$$$RNA1{StrandType:ss}|RNA2{StrandType:as}$", "target mRNA knockdown": 67},
      {"substance": "RNA1{m(A)p.r(G)p.m(C)p.r(C)p.m(A)p.r(C)p.m(A)p.r(U)p.m(U)p.r(U)p.m(C)p.r(U)p.m(A)p.r(G)p.m(G)p.r(A)p.m(G)p.r(A)p.r(U)p.r(T)p.r(T)}|RNA2{r(A)p.r(U)p.r(C)p.r(U)p.r(C)p.r(C)p.r(U)p.r(A)p.r(G)p.r(A)p.r(A)p.r(A)p.r(U)p.r(G)p.r(U)p.r(G)p.r(G)p.r(C)p.r(U)p.r(T)p.r(T)}$$$RNA1{StrandType:ss}|RNA2{StrandType:as}$", "target mRNA knockdown": 19},
      {"substance": "RNA1{m(A)p.r(G)p.m(C)p.r(C)p.m(U)p.r(C)p.m(C)p.r(A)p.m(A)p.r(A)p.m(C)p.r(U)p.m(C)p.r(C)p.m(U)p.r(A)p.m(G)p.r(C)p.m(U)p.r(T)p.r(T)}|RNA2{r(A)p.r(G)p.m(C)p.r(U)p.r(A)p.r(G)p.r(G)p.r(A)p.r(G)p.r(U)p.r(U)p.r(U)p.r(G)p.r(G)p.r(A)p.r(G)p.r(G)p.m(C)p.r(U)p.r(T)p.r(T)}$$$RNA1{StrandType:ss}|RNA2{StrandType:as}$", "target mRNA knockdown": 47},
      {"substance": "RNA1{m(A)p.r(G)p.m(C)p.r(G)p.m(A)p.r(U)p.m(C)p.r(C)p.m(C)p.r(G)p.m(A)p.r(A)p.m(C)p.r(A)p.m(A)p.r(G)p.m(U)p.r(A)p.m(U)p.r(T)p.r(T)}|RNA2{r(A)p.r(U)p.r(A)p.m(C)p.r(U)p.r(U)p.r(G)p.r(U)p.r(U)p.m(C)p.r(G)p.r(G)p.r(G)p.r(A)p.r(U)p.m(C)p.r(G)p.m(C)p.r(U)p.r(T)p.r(T)}$$$RNA1{StrandType:ss}|RNA2{StrandType:as}$", "target mRNA knockdown": 34},
      {"substance": "RNA1{m(A)p.r(G)p.m(C)p.r(G)p.m(G)p.r(G)p.m(G)p.r(U)p.m(A)p.r(U)p.m(G)p.r(A)p.m(A)p.r(G)p.m(A)p.r(G)p.m(C)p.r(U)p.m(U)p.r(T)p.r(T)}|RNA2{r(A)p.r(A)p.r(G)p.r(C)p.r(U)p.r(C)p.r(U)p.r(U)p.r(C)p.r(A)p.r(U)p.r(A)p.r(C)p.r(C)p.r(C)p.r(C)p.r(G)p.r(C)p.r(U)p.r(T)p.r(T)}$$$RNA1{StrandType:ss}|RNA2{StrandType:as}$", "target mRNA knockdown": 75}
    ]}
  ]
}
